The source of these data is patent US12543737B2, “Herbicidal composition and method for controlling weeds” (SUMITOMO CHEMICAL COMPANY, LIMITED, priority 2020, dated 2026).

Experiment [1] concerns waterhemp (Amaranthus tuberculatus=Amaranthus rudis=Amaranthus tamariscinus) having the substitution of an amino acid residue of G210Δ in PPX2. The experiment in a line: Herbicidal effect, foliar spray pot test in greenhouse (Example 10). The experiment is classed as in vivo. Particulars: 216 L/ha, 28 days after spraying, rating 0 to 100.
The test system is the same in experiment [2]. The experiment in a line: Herbicidal effect, foliar spray pot test in greenhouse (Example 9). Type of experiment: in vivo. Particulars: spray volume 216 L/ha, 28 days after spraying, rating 0 to 100.
Where [3] appears, read: glufosinate-ammonium 350 g/ha alone.

For `C#CCN1C(=O)C(F)(F)Oc2cc(F)c(-n3c(=O)n(C)c(=S)n(C)c3=O)cc21` [trifludimoxazin], in experiment [1] (trifludimoxazin 0.5 g/ha alone), the Herbicidal effect worked out at 10.
As to `CCOC(=O)COc1ncccc1Oc1cc(-n2c(=O)cc(C(F)(F)F)n(C)c2=O)c(F)cc1Cl` [compound X, epyrifenacil], the results for the Herbicidal effect in experiment [2] (compound X 0.5 g/ha alone) and in experiment [2] (compound X 1 g/ha alone) were 17 and 18, respectively.
As to `CP(=O)(O)CCC(N)C(=O)O` (centres unmarked) [glufosinate-ammonium], the Herbicidal effect in experiment [2] (setting [3]) and in experiment [1] (setting [3]) was 37 in each case.
